Measured values as given in paper PMC3466778 (Biochemistry, 2012).

Target: T1, KcsA (Streptomyces lividans, UniProt P0A334)
T1 sequence (P0A334 1-160): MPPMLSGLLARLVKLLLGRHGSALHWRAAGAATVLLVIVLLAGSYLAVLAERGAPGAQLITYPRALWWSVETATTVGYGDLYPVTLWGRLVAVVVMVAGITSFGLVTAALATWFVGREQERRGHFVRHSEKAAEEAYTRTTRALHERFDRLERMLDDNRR
Assay: fluorescence titration
Assay type: binding

SMILES: CN(C)c1cccc2c(S(=O)(=O)NCCCCCCCCCCC(=O)O)cccc12 [Dauda]
- Kd: 470 ± 100 nM
